Test results from the NIST ThermoML archive (doi:10.1016/j.tca.2012.04.033).

What was measured:
[1] = Crystal; DTA
[2] = xn = mol fraction of the nth substance listed; conditions: 101 kPa, Liquid, Vibrating tube method
[3] = refractive index (Na D-line) (dimensionless); xn = mol fraction of the nth substance listed; conditions: 101 kPa, Liquid, Standard Abbe refractometry

C[Si](O[Si](C)(c1ccccc1)c1ccccc1)(c1ccccc1)c1ccccc1 [1,3-dimethyl-1,1,3,3-tetraphenyldisiloxane]
Conditions	Normal melting temperature [°C]
[1]	49.70

C[Si](O[Si](C)(c1ccccc1)c1ccccc1)(c1ccccc1)c1ccccc1 [1,3-dimethyl-1,1,3,3-tetraphenyldisiloxane] + CC(C)O
303.15 K
Conditions	mass density, x1 = 0.00125 [kg/m3]	mass density, x1 = 0.00359 [kg/m3]	mass density, x1 = 0.00759 [kg/m3]	mass density, x1 = 0.01218 [kg/m3]	mass density, x1 = 0.01284 [kg/m3]	refractive index, x1 = 0.00125	refractive index, x1 = 0.00359	refractive index, x1 = 0.00759	refractive index, x1 = 0.01218	refractive index, x1 = 0.01284
[2]	778.65	783.03	788.42	794.61	795.14	–	–	–	–	–
[3]	–	–	–	–	–	1.37416	1.37721	1.38094	1.38528	1.38568

C[Si](O[Si](C)(c1ccccc1)c1ccccc1)(c1ccccc1)c1ccccc1 [1,3-dimethyl-1,1,3,3-tetraphenyldisiloxane] + CCCO
303.15 K
Conditions	mass density, x1 = 0.00161 [kg/m3]	mass density, x1 = 0.00428 [kg/m3]	mass density, x1 = 0.00956 [kg/m3]	mass density, x1 = 0.01076 [kg/m3]	mass density, x1 = 0.01339 [kg/m3]	refractive index, x1 = 0.00161	refractive index, x1 = 0.00428	refractive index, x1 = 0.00956	refractive index, x1 = 0.01076	refractive index, x1 = 0.01339
[2]	797.94	801.12	808.9	810.51	813.97	–	–	–	–	–
[3]	–	–	–	–	–	1.38273	1.38545	1.39061	1.39176	1.39425

C[Si](O[Si](C)(c1ccccc1)c1ccccc1)(c1ccccc1)c1ccccc1 [1,3-dimethyl-1,1,3,3-tetraphenyldisiloxane] + CCO
298.15 K
Conditions	mass density, [2] [kg/m3]	refractive index, [3]
x1 = 0.0009	787.37	1.36085
x1 = 0.00225	789.76	1.36263
x1 = 0.00446	794.07	1.36586
x1 = 0.00667	798.07	1.36893
x1 = 0.00825	801.34	1.37139
x1 = 0.01059	805.13	1.37427
x1 = 0.01252	808.66	1.37693

C[Si](O[Si](C)(c1ccccc1)c1ccccc1)(c1ccccc1)c1ccccc1 [1,3-dimethyl-1,1,3,3-tetraphenyldisiloxane] + CO
298.15 K
Conditions	mass density, x1 = 0.00036 [kg/m3]	mass density, x1 = 0.0009 [kg/m3]	mass density, x1 = 0.0018 [kg/m3]	mass density, x1 = 0.00241 [kg/m3]	mass density, x1 = 0.00364 [kg/m3]	refractive index, x1 = 0.00036	refractive index, x1 = 0.0009	refractive index, x1 = 0.0018	refractive index, x1 = 0.00241	refractive index, x1 = 0.00364
[2]	787.68	789.17	791.71	793.31	796.57	–	–	–	–	–
[3]	–	–	–	–	–	1.3274	1.3287	1.33084	1.33228	1.33509

C[Si](O[Si](C)(c1ccccc1)c1ccccc1)(c1ccccc1)c1ccccc1 [1,3-dimethyl-1,1,3,3-tetraphenyldisiloxane] + C[Si]1(C)O[Si](C)(C)O[Si](C)(C)O[Si](C)(C)O1
303.15 K
Conditions	mass density, x1 = 0.00724 [kg/m3]	mass density, x1 = 0.01526 [kg/m3]	mass density, x1 = 0.02752 [kg/m3]	mass density, x1 = 0.04184 [kg/m3]	mass density, x1 = 0.05492 [kg/m3]	refractive index, x1 = 0.00724	refractive index, x1 = 0.01526	refractive index, x1 = 0.02752	refractive index, x1 = 0.04184	refractive index, x1 = 0.05492
[2]	946.03	947.52	949.77	952.36	954.7	–	–	–	–	–
[3]	–	–	–	–	–	1.39358	1.39553	1.3985	1.40193	1.40505
